Test results published in patent US4885245A, “Process for producing L-tryptophan” (Ajinomoto Co., Inc., priority 1984, dated 1989).

Tests used:
[1] = target: T1, tryptophan synthetase (TS) of transformant AJ 12139 (Corynebacterium glutamicum, UniProt P06561); assay: TS (TSB) activity of crude enzyme solution of transformant AJ 12139 with added L-tryptophan; type: biochemical, Brevibacterium lactofermentum
T1 construct: plasmid pAJ 319 (pAJ 1844 vector) carrying trpA and trpB of AJ 12030, in TSA-deficient host No. 21
Protocol: (§1) A specimen strain was cultured in 20 ml of medium for L-tryptophan production (described hereinafter). From the cultured cells, a lysate was prepared by an ultrasonic wave treatment and centrifuged at 32,000×gfor 30 minutes to obtain the supernatant. The supernatant was used as a crude enzyme solution. Using an enzyme reaction solution (1 ml in total amount) consisting of 100 mM tris hydrochloride buffer (pH 7.8), 0.4 mM indole, 30 mM L-serine, 40 μm pyridoxal-5'-phosphate and 180 mM sodium chloride, TSB activity was measured. The reaction was carried out at 30° C. for 30 minutes, 0.1 ml of 1N NaOH was added, the remaining indole was extracted with toluene, color was then formed by an indole reagent and then the color was measured by a spectrophotometer (at […]).

[2] = target: T2, tryptophan synthetase (TS) of wild strain AJ 12036 (Corynebacterium glutamicum, UniProt P06561); assay: TS (TSB) activity of crude enzyme solution of wild strain AJ 12036 with added L-tryptophan; type: biochemical; details: strain AJ 12036 crude enzyme, 20 mM L-Tryptophan added
T2 construct: that of the wild strain (AJ 12036); endogenous in cells; host or cells: wild strain AJ 12036 (FERM-P7559, FERM-BP 734), crude sonicate supernatant
T2 sequence (P06561 1-417): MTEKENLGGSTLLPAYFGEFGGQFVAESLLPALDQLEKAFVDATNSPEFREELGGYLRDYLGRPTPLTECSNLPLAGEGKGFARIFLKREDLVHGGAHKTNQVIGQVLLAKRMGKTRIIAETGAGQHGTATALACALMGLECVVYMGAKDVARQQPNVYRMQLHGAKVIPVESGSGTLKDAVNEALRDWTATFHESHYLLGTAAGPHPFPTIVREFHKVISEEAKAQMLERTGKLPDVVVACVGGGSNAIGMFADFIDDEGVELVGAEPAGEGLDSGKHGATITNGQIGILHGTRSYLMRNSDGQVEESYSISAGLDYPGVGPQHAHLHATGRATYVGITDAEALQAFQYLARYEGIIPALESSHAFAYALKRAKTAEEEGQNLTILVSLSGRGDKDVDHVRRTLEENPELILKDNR
T2 sequence (P06562 1-280 partner): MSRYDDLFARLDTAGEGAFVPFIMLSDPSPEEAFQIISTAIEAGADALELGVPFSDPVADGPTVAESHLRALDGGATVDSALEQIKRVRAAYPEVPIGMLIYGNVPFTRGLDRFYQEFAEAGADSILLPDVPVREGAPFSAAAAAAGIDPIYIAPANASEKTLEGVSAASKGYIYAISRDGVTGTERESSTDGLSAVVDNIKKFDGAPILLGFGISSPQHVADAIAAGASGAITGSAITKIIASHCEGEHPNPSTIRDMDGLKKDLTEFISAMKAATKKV
Protocol: as §1

In the case of `N[C@@H](Cc1c[nH]c2ccccc12)C(=O)O` [L-Tryptophan, L-tryptophan], the “inhibition of TS activity of the transformant (in words)” value ([1]; in the presence of 20 mM L-tryptophan) is reported as “inhibited only slightly”, the “TS activity (amount of decreased indole in mole/min/mg amount of protein)” value ([1]; strain AJ 12139 crude enzyme, 20 mM L-Tryptophan added, 30° C., 30 minutes, 0 mM control 81.0) is reported as 66.4 mole/min/mg amount of protein and the “TS activity, relative value in parentheses (0 mM = 100)” value ([1]; strain AJ 12139 crude enzyme, 20 mM L-Tryptophan added, 30 min) is reported as 82. The activity at 20000 µM ([2]; 0.5 h, read-out: TS activity, relative value in parentheses (0 mM = 100)) was 65% and the “TS activity (amount of decreased indole in mole/min/mg amount of protein)” value ([2]; 30° C., 30 minutes, 0 mM control 7.1) was 4.6 mole/min/mg amount of protein.
